Data on two compounds can be found in US11246929B2, “Combination of a protein kinase inhibitor and an additional chemotherapeutic agent” (Merck Patent GmbH, priority 2016, dated 2022).

Read-outs that look alike come from different tables or passages of the source.

Data set [1] relates to A549 (lung, adeno) xenograft. Nature of the data set: Xenograft, fractionated IR plus Compound 1, time to TV400%. It is filed as in vivo, mouse. The method, then:
(§1) The therapeutic relevance of DNA-PK inhibition by Compound 1 was investigated in vivo in combination with ionizing radiation (IR), a clinically established DSB-inducing treatment. Compound 1 was tested for activity in six xenograft mouse models of human cancer. The models were chosen from different cancer indications (colon, lung, head and neck, pancreatic), and histological subtypes (adeno, squamous, large cell). Ionizing radiation was administered using a fractionated schedule of 2 Gy per day administered over five consecutive days (total radiation dose=10 Gy). Compound 1 was given orally 10 min prior to each fraction of radiation (ONC397-1-2AZ, ONC397-1-3AZ, ONC397-1-4AZ, ONC397-1-5AZ, ONC397-1-8AZ).
(§2) Radiotherapy enhancing effect of Compound 1 was quantified across the tested models by the time to reaching 400% initial volume for the 150 mg/kg study arms. The resulting Kaplan-Meier plots were compared by the log-rank test.

The test system of data set [2] is BxPC3 (pancreas, adeno) xenograft. Described as above. It is filed as in vivo, mouse. As for the experimental part:
as §1, §2

The test system of data set [3] is Capan-1 (pancreas, adeno) xenograft. The data set is described as above. It is filed as in vivo, mouse. As for the experimental part: as §1, §2
Data set [4] relates to HCT116 (colon, adeno) xenograft. The description is as above. It is filed as in vivo, mouse. As for the experimental part: as §1, §2
The test system of data set [5] is NCI-H460 (lung, large cell) xenograft. The description is as above. It is filed as in vivo, mouse. As for the experimental part:
as §1, §2

The test system of the next data set is NCI-H460 xenograft. It is filed as in vivo.
Data set [6] concerns myeloid and lymphoid cells. Nature of the data set: Hematology study, blood cell counts in immunocompetent mice. It is filed as in vivo, mouse. The following applies: addition of Compound 1 to etoposide/cisplatin. An excerpt:
For efficacy xenograft study 1014-1-58/BKU00105 female CD1 nu/nu mice [internal Batch ID 04108; Charles River Laboratories, Sulzfeld, Germany], aged 6-8 weeks, were used. For the hematology study 1015-1-3/BKU00106 immunocompetent female CD1 mice [internal Batch ID1406; Janvier Labs, Genest-Saint-Isle, France], aged 12 weeks were used. The mice were acclimatized to the housing conditions for 1 week. They were kept in groups of 10 in polysulfone cages Type III (42.5×26.6×15.5 cm; Techniplast, Hohenpeissenberg). Bedding consisted of aspen chips (E. Becker, Castrop-Rauxel). Room temperature was 24+/−2° C. and relative humidity was 50+/−10% at 15 air changes per hour. Drinking water (provided ad libitum) was supplemented with 1 mg/mL Chlorine and was adjusted to a pH of 6.5 with HCl. […]
The hematology data were evaluated by RM-ANOVA and Bonferroni multiple comparisons post test comparing the blood cell counts of the respective combination groups to the blood cell counts of the SoC only treatment group.
In parallel with the antitumor effect of the etoposide/cisplatin/Compound 1 combination, the effect on myeloid and lymphoid cells was investigated in immunocompetent mice (refer to ONC1015-1-3AZ). […] Blood cell count was determined under treatment (days 5 and 11) and during recovery (days 18 and 24).

The target in a further data set is DNA-PK (Homo sapiens, UniProt P78527). Nature of the data set: crystallographic and enzyme kinetics studies. It is filed as biochemical.
In data set [7] the test system is 81 cancer cell lines representing 17 tumor tissue types. Nature of the data set: Single agent activity, panel of 81 cancer cell lines plus PBMC. It is filed as cell-based. Particulars: for GI50: PBMC.
Data set [8] concerns resting, non-proliferating PBMC. Described as above. It is filed as cell-based.
The test system of a further data set is panel of 93 cell lines. Nature of the data set: SRB growth inhibition, 93 cell lines panel (summary). It is filed as cell-based. The method, then: (§3) 90 μl of cells, after a 48-hour pre-growth period, were treated by mixing with 10 μl of the compound-containing media (resulting in a final DMSO concentration of 0.1%).
(§4) This is the drug concentration causing a 50% reduction compared to the net protein increase in control cells during the drug incubation period. In other words, G150 is IC50 corrected for time zero. […] TGI was calculated from Ti=Tz. […] It was calculated as 100×[(Ti−Tz)/Tz]=−50.
The * or ** mark the lowest or highest tested concentrations. […] Both uM and μM stand for micromolar.

Another data set concerns JIMT1. As to the kind of experiment: Single agent activity, panel of 81 cancer cell lines plus PBMC. Particulars: Homo sapiens, JIMT-1. It is filed as cell-based.
Another data set concerns HEPG2. Nature of the data set: cells. Particulars: Homo sapiens, HepG2, read-out: GI50 of etoposide (±Compound 1). The method, then:
as §3, §4

The next data set has as its system MT3. As to the kind of experiment: cells. Particulars: MT-3, read-out: GI50 of etoposide (±Compound 1). The method, then:
as §3, §4

The next data set has as its system PLCPRF5. Nature of the data set: cells. The following applies: Homo sapiens, PLC-PRF-5, read-out: GI50 of etoposide (±Compound 1). As for the experimental part: as §3, §4
For a further data set, the system named is SKHEP1. As to the kind of experiment: cells. The following applies: Homo sapiens, SK-HEP1, read-out: GI50 of etoposide (±Compound 1). As for the experimental part:
as §3, §4

In another data set the test system is DLD1. Nature of the data set: cells. Particulars: Homo sapiens, DLD-1, read-out: GI50 of etoposide (±Compound 1).
Another data set relates to SF295. As to the kind of experiment: SRB growth inhibition, 93 cell lines panel. The following applies: Homo sapiens, SF-295, read-out: GI50 of etoposide (±Compound 1).
Another data set concerns SNB75. As to the kind of experiment: SRB growth inhibition, 93 cell lines panel. The following applies: Homo sapiens, SNB-75, read-out: GI50 of etoposide (±Compound 1).
The mark [9] stands for this setting: IR 10 Gy (5 x 2 Gy) + Compound 1 150 mg/kg po.
Setting [10] is: IR 10 Gy (5 x 2 Gy) + Compound 1 150 mg/kg po 10 min prior to each fraction.

Method for DLD1: Cell growth and treatment were performed in 96-well microtitre plates CELLSTAR® (Greiner Bio-One, Germany). Cells harvested from exponential phase cultures by trypsinization or by splitting (in the case of cells growing in suspension) were plated in 90 μl of media at optimal seeding densities. The optimal seeding density for each cell line was determined to ensure exponential growth for the duration of the experiment. All cells growing without anticancer agents were sub-confluent by the end of the treatment, as determined by visual inspection.
90 μl of cells, after a 48-hour pre-growth period, were treated by mixing with 10 μl of the compound-containing media (resulting in a final DMSO concentration of 0.1%). The cells were allowed to grow at 37° C. for 72 (or 120) hours.
Cells were fixed to the surface by addition of 10% TCA (for adherent growing cells) or 50% TCA (for semi-adherent growing cell or cells growing in suspension). After an hour of incubation at 4° C. plates were washed twice with 200 μl of deionized water and dried. Cells were then stained with 100 μl of 0.04% w/v SRB. […]
Using these measurements, cellular responses can be calculated for incomplete inhibition of cell growth (GI), complete inhibition of cell growth (TGI) and net loss of cells (LC) due to compound activity. […] TGI was calculated from Ti=Tz. […] It was calculated as 100×[(Ti−Tz)/Tz]=−50.
From the text for NCI-H460 xenograft: The NCI-H460 was chosen as a model relatively insensitive to IR treatment.
Method for SF295: (§5) Cell growth and treatment were performed in 96-well microtitre plates CELLSTAR® (Greiner Bio-One, Germany). Cells harvested from exponential phase cultures by trypsinization or by splitting (in the case of cells growing in suspension) were plated in 90 μl of media at optimal seeding densities. The optimal seeding density for each cell line was determined to ensure exponential growth for the duration of the experiment. All cells growing without anticancer agents were sub-confluent by the end of the treatment, as determined by visual inspection. […] The cells were allowed to grow at 37° C. for 72 (or 120) hours. […] Cells were fixed to the surface by addition of 10% TCA (for adherent growing cells) or 50% TCA (for semi-adherent growing cell or cells growing in suspension). After an hour of incubation at 4° C. plates were washed twice with 200 μl of deionized water and dried. Cells were then stained with 100 μl of 0.04% w/v SRB. The plates were incubated at room temperature for at least 30 min and washed six times with 1% acetic acid to remove unbound stain. […] Using these measurements, cellular responses can be calculated for incomplete inhibition of cell growth (GI), complete inhibition of cell growth (TGI) and net loss of cells (LC) due to compound activity. […] TGI was calculated from Ti=Tz.
Method for SNB75: as §5

In the case of `COc1ccc([C@@H](O)c2cc(-c3ncnc4cc(N5CCOCC5)ccc34)c(F)cc2Cl)nn1` [Compound 1, (S)-[2-chloro-4-fluoro-5-(7-morpholin-4-yl-quinazolin-4-yl)-phenyl]-(6-methoxy-pyridazin-3-yl)-methanol], the “Enhancement Ratio [combi/IR only]” value was 1.5 in data set [1] (setting [9]); 2 in [2] (setting [9]); 2 in data set [3] (setting [9]); 1.5 in [4] (setting [9]); 2.6 in data set [5] (setting [9]). The “median time to TV400% Combi” value in data set [1] (setting [10]) is 42 days; in data set [2] (setting [10]), 73.5 days; in data set [3] (setting [10]), 132 days; in data set [4] (setting [10]) it was 46 days; in data set [5] (setting [10]), 45 days. The tumor response entry in the data set with NCI-H460 xenograft (6 weeks IR (60 Gy total) + Compound 1 25 and 50 mg/kg po) is “regressed during the treatment and observation period up to approximately day 90”. In addition, the “tumor volume vs starting volume” value in the data set with NCI-H460 xenograft (6 weeks IR + 50 mg/kg, 42 days of treatment plus 68 days observation) is on record as “did not exceed their starting volume”. Also, the tolerability result in the data set on NCI-H460 xenograft (6 weeks IR + Compound 1) is on record as “generally well tolerated”. The “blood cell reduction and recovery” value in data set [6] is given as “did not significantly affect blood cell reduction nor the recovery phase”. Besides, the “inhibition of DNA-PK, mode” value against DNA-PK is “potent and selective ATP-competitive inhibitor”. Moreover, the activity range result in data set [7] is “more than 20 fold”. In addition, the GI50 in [7] (in a set of cell lines, read-out: activity (GI50), lower end of range) is 500 nM; in [7] (read-out: activity (GI50), upper end of range), more than 10000 nM. The “activity in resting PBMC” value in [8] is “No activity”.

As to `COc1cc([C@@H]2c3cc4c(cc3[C@@H](O[C@@H]3O[C@@H]5CO[C@@H](C)O[C@H]5[C@H](O)[C@H]3O)[C@H]3COC(=O)[C@H]23)OCO4)cc(OC)c1O` [Etoposide], the concentration for 50% growth inhibition (GI50) in the data set with panel of 93 cell lines (read-out: Average GI50) was 1700 nM; with panel of 93 cell lines (read-out: Median GI50), 900 nM; in the data set with panel of 93 cell lines (read-out: Most resistant cell line (GI50)), more than 10000 nM; with panel of 93 cell lines (read-out: Most sensitive cell line (GI50)), 38 nM; in the data set on JIMT1 it was more than 10000 nM; in the data set on HEPG2 it was 806 nM. Besides, the GI50 in the data set with MT3 amounted to 609 nM; with PLCPRF5 it was 6250 nM; in the data set with SKHEP1, 83 nM; in the data set on DLD1, 1350 nM; in the data set with SF295, 1160 nM; in the data set with SNB75, 3790 nM. The activity range result in data set [7] was “more than 1000 fold”. Besides, the “activity in resting PBMC” value in data set [8] was “no activity”.

A word on the GI50: it is the concentration giving 50% growth inhibition.
